In patent publication EP2433624B1, “Use of buparvaquone for controlling mites parasitising honeybees” (Bimeda International Pharmaceuticals Limited, priority 2010, dated 2012):
Where “and” joins values, the source holds several entries; their conditions need not be identical. Equal values may be shown once.

What was measured:
honeybee larvae = assay: Toxicity of BPQ B to honeybee larvae when fed treated syrup; format: in vivo, Apis mellifera; conditions: colony fed treated syrup
Description: To measure the effect of treatment on developing larvae when fed syrup treated with BPQ powder, BPQ B, dissolved in the solvent (N-methyl pyrollidone) and diluted in an aqueous solution.
Apidae boxes were used to raise young queens and when virgin queens started to lay an area 6cm x 3cm were marked and missing cells were noted. The miniature colony was fed treated syrup, which was made by dissolving BPQ B powder in solvent, followed by serial dilutions using a sucrose solution (2 parts sugar: 1 part water). The concentrations administered are given below. Two replicates were carried out for the product, while 1 colony (apidae) was used for each of the solvent concentrations.

Varroa mites = assay: Toxicity to Varroa mites submerged in 3µL liquid in eppendorf tubes; format: in vivo; conditions: for mean number of live mites: day 3, 10 mites per tube
Experimental: Example 5 - Toxicity of BPQ A to Varroa mites
To assess the toxicity of BPQ to the Varroa mite
Varroa mites only feed on haemolymph of larvae and adult bees and thus would not ingest BPQ in a syrup/water solution. Therefore, it was necessary to identify a volume sufficient to permeate through the cuticle, but not drown the mites. After preliminary investigation it was concluded that 3µL/10 mites/eppendorf tube gave the maximum viability and the latter was used for this trial.
A total of 3µL of BPQ A/solvent was pipetted into each eppendorf tube. Ten mites taken from purple eye drone pupae were submerged in the liquid by tapping the tube gently and a fresh pupa was placed in each tube. 20 pinholes were made in each of the tubes and all samples were placed in the incubator at 30°C. Three replicates were made for each concentration and water was used in the control group. Concentrations of BPQ A and solvent were as described above (Section 1.1). The number of damaged or dead mites was counted on a daily basis. Damaged mites were mites that would not move in a coordinated fashion when touched gently 3 times with a fine brush.

honeybees = assay: Survival of bees sprayed with aqueous solutions of BPQ; format: in vivo, Apis mellifera; conditions: 20 bees per cage
Experimental: Example 7 - Toxicity of BPQ B to Varroa mites on honeybees when sprayed with an aqueous solution of the active ingredient
A total of 20 newly emerged Varroa infested bees were placed in hoarding cages. The cages were prepared as described in Section 1.0, except that the air vents were reduced in size using parafilm to prevent the Varroa mites escaping during the test period. The mean(±se) number of mites per 20 bees was estimated prior to commencement and an additional 10 mites per cage were added. Mites were collected and introduced as described above. The treatment solution was made by dissolving BPQ B in solvent, followed by two aqueous serial dilutions producing a concentration of 500µg/mL and 5µg/mL. From the latter, further serial dilutions were carried in water producing the following concentrations: • 0.5µg/mL. (C1-C3) • 0.05µg/mL. (D1-D3) • 0.005µg/mL. (E1-E3) • 0.0005µg/mL. (F1-F3) • 0.00005µg/mL (G1-G3)
Three replicates were established at each concentration plus a control group which were sprayed with water only. All test groups were fed 10mL of 1:1 sucrose:water solution and placed in the incubator at 32°C and monitored on a daily basis for the number of mites and number of bees knocked down. At the end of five day treatment period, the percentage efficacy of the treatment was estimated by treating bees in all cages with Apistan. % efficacy = mites knocked from treatment/total mites (treatment+Apistan)*100 [formula]

Solubility in water = format: physicochemical
[1] = 0.00005µg/mL (g1-g3) aqueous solution sprayed
[2] = 0.0005µg/mL (f1-f3) aqueous solution sprayed
[3] = 0.005µg/mL (e1-e3) aqueous solution sprayed
[4] = 0.05µg/mL (d1-d3) aqueous solution sprayed
[5] = 0.5µg/mL (c1-c3) aqueous solution sprayed

Structure (SMILES): CC(C)(C)[C@H]1CC[C@H](CC2=C(O)C(=O)c3ccccc3C2=O)CC1 [BPQ, buparvaquone]
- development of developing larvae (honeybee larvae): no negative effects
- mean number of live mites (Varroa mites; 0.00005µg/mL (g)): 8.66±1.73
- mean number of live mites (Varroa mites; 0.0005µg/mL (f)): 7.66±1.33
- mean number of live mites (Varroa mites; 0.5µg/mL): 3.33±2.4
- toxicity to free living Varroa mites (Varroa mites; summary statement): highly toxic
- Bees remaining (honeybees; [1]): 18 and 17 and 20
- Survival rate on bees, Day 1 (honeybees; [1]): 20
- Survival rate on bees, Day 2 (honeybees; [1]): 19 and 20
- Survival rate on bees, Day 3 (honeybees; [1]): 19 and 17 and 20
- Survival rate on bees, Day 4 (honeybees; [1]): 19 and 17 and 20
- Survival rate on bees, Day 5 (honeybees; [1]): 19 and 17 and 20
- Survival rate on bees, Day 6 (honeybees; [1]): 18 and 17 and 20
- Bees remaining (honeybees; [2]): 20 and 19 and 18
- Survival rate on bees, Day 1 (honeybees; [2]): 20
- Survival rate on bees, Day 2 (honeybees; [2]): 20 and 19 and 18
- Survival rate on bees, Day 3 (honeybees; [2]): 20 and 19 and 18
- Survival rate on bees, Day 4 (honeybees; [2]): 20 and 19 and 18
- Survival rate on bees, Day 5 (honeybees; [2]): 20 and 19 and 18
- Survival rate on bees, Day 6 (honeybees; [2]): 20 and 19 and 18
- Bees remaining (honeybees; [3]): 19 and 20
- Survival rate on bees, Day 1 (honeybees; [3]): 20
- Survival rate on bees, Day 2 (honeybees; [3]): 20
- Survival rate on bees, Day 3 (honeybees; [3]): 19 and 20
- Survival rate on bees, Day 4 (honeybees; [3]): 19 and 20
- Survival rate on bees, Day 5 (honeybees; [3]): 19 and 20
- Survival rate on bees, Day 6 (honeybees; [3]): 19 and 20
- Bees remaining (honeybees; [4]): 20 and 19
- Survival rate on bees, Day 1 (honeybees; [4]): 20
- Survival rate on bees, Day 2 (honeybees; [4]): 20 and 19
- Survival rate on bees, Day 3 (honeybees; [4]): 20 and 19
- Survival rate on bees, Day 4 (honeybees; [4]): 20 and 19
- Survival rate on bees, Day 5 (honeybees; [4]): 20 and 19
- Survival rate on bees, Day 6 (honeybees; [4]): 20 and 19
- Bees remaining (honeybees; [5]): 19 and 20
- Survival rate on bees, Day 1 (honeybees; [5]): 20
- Survival rate on bees, Day 2 (honeybees; [5]): 20 and 19
- Survival rate on bees, Day 3 (honeybees; [5]): 20 and 19
- Survival rate on bees, Day 4 (honeybees; [5]): 19 and 20
- Survival rate on bees, Day 5 (honeybees; [5]): 19 and 20
- Survival rate on bees, Day 6 (honeybees; [5]): 19 and 20
- solubility in water (Solubility in water): completely insoluble
